In publication PMC3161871, “Heteroarylketones inhibit astroglial interleukin-6 expression via a STAT3/NF-κB signaling pathway” (Journal of Neuroinflammation, 2011):

What was measured:
[1] = target: T1, human recombinant prolyl endopeptidase (PREP) (Homo sapiens, UniProt P48147); test: PREP enzymatic activity assay (Z-Gly-Pro-pNA, photometric); type: biochemical; conditions: recombinant PREP, Z-Gly-Pro-pNA 62.5/125/250 μM, pH 7.6, 30°C, competitive fit
T1 construct: made in house
T1 sequence (P48147 1-710): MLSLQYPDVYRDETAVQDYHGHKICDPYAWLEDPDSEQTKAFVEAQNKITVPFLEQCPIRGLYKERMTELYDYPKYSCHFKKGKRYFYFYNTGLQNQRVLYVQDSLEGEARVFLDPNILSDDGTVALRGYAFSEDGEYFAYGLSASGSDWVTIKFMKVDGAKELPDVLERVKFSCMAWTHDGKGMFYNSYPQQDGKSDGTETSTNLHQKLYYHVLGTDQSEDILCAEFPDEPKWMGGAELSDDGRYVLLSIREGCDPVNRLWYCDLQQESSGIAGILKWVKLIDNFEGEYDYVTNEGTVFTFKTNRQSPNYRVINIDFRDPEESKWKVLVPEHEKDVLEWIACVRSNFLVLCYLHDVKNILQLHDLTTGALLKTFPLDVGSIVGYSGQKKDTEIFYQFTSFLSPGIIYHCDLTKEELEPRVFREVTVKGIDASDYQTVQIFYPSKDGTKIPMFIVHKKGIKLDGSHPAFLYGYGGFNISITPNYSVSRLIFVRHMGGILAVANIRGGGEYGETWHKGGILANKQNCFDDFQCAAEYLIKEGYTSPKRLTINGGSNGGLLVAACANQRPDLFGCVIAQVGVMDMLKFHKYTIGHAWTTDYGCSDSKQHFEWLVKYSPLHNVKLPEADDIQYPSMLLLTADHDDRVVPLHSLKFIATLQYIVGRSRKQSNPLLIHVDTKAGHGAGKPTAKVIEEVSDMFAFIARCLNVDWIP
Procedure: The activity of human recombinant prolyl endopeptidase (PREP) was determined photometrically using the substrate Z-Gly-Pro-pNA (Bachem, Weil am Rhein, Germany) usually at a concentration of 150 μM. As assay buffer 50 mM HEPES buffer pH 7.6, containing 200 mM NaCl, 1 mM EDTA, and 1 mM dithiothreitol was used. Release of pNA was monitored continuously at 405 nm for 15 min at 30°C in a 96-well plate reader (Spectrafluor, Tecan, Crailsheim, Germany). PREP activity was calculated from the slope of the time product curve with the help of a pNA standard. For determination of Ki values three different substrate concentrations (62.5 μM; 125 μM and 250 μM) and seven different inhibitor concentrations were analyzed. Substrate concentrations were selected to be at the Km value of Z-Gly-Pro-pNA (125 μM) as well as half and twice the Km. Data were fitted by non-linear regression to the competitive inhibitor equation (Graphit 5.0, Erithacus software).

[2] = Brain bioavailability by LC-MS/MS of mouse plasma and brain samples; type: in vivo
Procedure: Based on the results obtained from primary murine astrocytes, we reasoned that HAK compounds might also suppress elevated IL-6 expression in vivo. Therefore, bioactivity of the compound HAK-2 was analyzed in the LPS-induced mouse septic shock model. In preparation of this in vivo study, selected HAK compounds were characterized in detail concerning brain bioavailability. […] For further in vivo investigations compound HAK-2 with a logBB of -0.22 was selected.

[3] = system: STAT3/p65 complex; test: Co-immunoprecipitation of p65 and STAT3 in OSM-stimulated U343 cells; type: cell-based, human; conditions: 100 ng/ml OSM, 20 μM compound, 6 h
Procedure: Cell lysates from 4 × 10^6 U343 cells/sample were obtained as described above. From each sample 200 μg of total protein were immunoprecipitated with 2 μg rabbit anti-p65 antibody (Santa Cruz Biotechnology; Heidelberg, Germany) or A. dest. (control) overnight at 4°C. Immunoprecipitated samples were incubated with 20 μl Dynabeads Protein G (Thermo Fisher Scientific, Karlsruhe, Germany) for 1 h at 4°C. Beads were washed 3 times with 1 ml PBS. Preparation of samples for SDS-PAGE analysis was done by means of dilution with SDS-PAGE sample buffer (Invitrogen, Darmstadt, Germany), followed by denaturation at 90°C for 10 min. SDS-PAGE analysis were performed as described before.
Normally, STAT3 is activated by phosphorylation at tyrosine 705, which induces dimerization, nuclear translocation and DNA binding. In contrast to other transcription factors like NF-κB, Creb and c/EBPb, STAT3 can not bind directly to the IL-6 promoter, because there are no STAT3 binding elements present. It is known from literature that several forms of interactions and cross talks between NF-κB and STAT3 exist. For instance, recent studies have shown a physical interaction between STAT3 and NF-κB [42, 43]. The importance of pSTAT3^S727 for protein interactions are under discussion. However, there is no information so far on the role of pSTAT3^S727 for the interaction with NF-κB. […]

Ki [1]: 0.038 nM
logBB [2]: -0.22
Compound: C[C@H](NC(=O)OCc1ccccc1)C(=O)N1CCC[C@H]1C(=O)c1nc2ccccc2s1 [HAK-2, Z-Ala-Pro-BTh]
p65-mediated STAT3 co-immunoprecipitation [3]: clear reduction
